In ChEMBL document CHEMBL4000216, “Lignan derivatives from Selaginella tamariscina and their nitric oxide inhibitory effects in LPS-stimulated RAW 264.7 cells” (Bioorg Med Chem Lett, 2017):
Active and inactive are the calls of the source. No cut-off for these calls is given here.

What was measured:
[1] = tested on: RAW264.7; assay: Cytotoxicity against mouse RAW264.7 cells assessed as reduction in cell viability at 3 to 60 uM after 24 hrs by MTT assay; assay type: cell-based; settings: raw264.7, 24 h
[2] = tested on: RAW264.7; assay: Inhibition of LPS-induced NO production in mouse RAW264.7 cells preincubated for 1 hr followed by LPS stimulation for 24 hrs by Griess assay; assay type: functional, cell-based
[3] = tested on: RAW264.7; assay: Inhibition of LPS-induced NO production in mouse RAW264.7 cells at 3 to 60 uM preincubated for 1 hr followed by LPS stimulation for 24 hrs by Griess assay; assay type: functional, cell-based

SMILES | IC50 [2] [µM] | Activity [1] | inhibition [3]
COc1cc([C@@H]2Oc3c(OC)cc(C(C)=O)cc3[C@H]2CO[C@@H]2O[C@H](CO)[C@@H](O)[C@H](O)[C@H]2O)cc(OC)c1O | 55.8 | Non-Toxic | 
COc1cc([C@@H]2Oc3c(OC)cc(C(C)=O)cc3[C@H]2CO)cc(OC)c1O[C@@H]1O[C@H](CO)[C@@H](O)[C@H](O)[C@H]1O | 32.4 | Non-Toxic | 
COc1cc([C@@H]2Oc3c(OC)cc(C(C)=O)cc3[C@H]2CO)cc(OC)c1O[C@@H]1O[C@H](CO[C@@H]2O[C@H](CO)[C@@H](O)[C@H](O)[C@H]2O)[C@@H](O)[C@H](O)[C@H]1O |  | Non-Toxic | inactive
COc1cc([C@H]2OC[C@H]3[C@@H]2CO[C@@H]3c2cc(OC)c(O[C@@H]3O[C@H](CO)[C@@H](O)[C@H](O)[C@H]3O)c(OC)c2)cc(OC)c1O[C@@H]1O[C@H](CO)[C@@H](O)[C@H](O)[C@H]1O [LIRIODENDRIN] |  | Non-Toxic | inactive

Second part, led by results:

IC50 [2] [µM] | SMILES | Activity [1] | inhibition [3]
32.3 | COc1cc([C@@H]2Oc3c(OC)cc(C(C)=O)cc3[C@H]2CO)cc(OC)c1O | Non-Toxic | 
40.9 | COc1cc(C[C@@H](CO[C@@H]2O[C@H](CO)[C@@H](O)[C@H](O)[C@H]2O)c2cc(C(C)=O)cc(OC)c2O)cc(OC)c1O | Non-Toxic | 
9.3 | O=C1/C(=C/c2ccc(O)c(O)c2)COc2cc(O)ccc21 [SAPPANONE A] |  | 
